From patent US7053107B2, “Indazole compounds and pharmaceutical compositions for inhibiting protein kinases, and methods for their use” (Agouron Pharmaceuticals, Inc., priority 2002, dated 2006)

How the values were obtained:
[1] = molecular target: T1, unphosphorylated VEGF-R2Δ50 (Homo sapiens, UniProt P35968, DEL940-989/E990V); assay: VEGF-R2 coupled spectrophotometric assay, unphosphorylated construct (FLVK); type: biochemical; conditions: % inhibition at 50 nM compound; read-out: FLVK Ki % inh @ 50 nM
T1 construct: VEGF-R2Δ50 contains residues 806–939 and 990–1171; made in house; host or cells: baculovirus/insect cell system
Procedure, shortened: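 Human VEGF-R2Δ50 kinase (residues 806–939/990–1171, baculovirus-expressed; autophosphorylated form pre-treated with 3 mM ATP, 4° C, 2 h), 5–40 nM, with poly(E4Y1) in 200 mM HEPES pH 7.5; ADP coupled via PK/LDH to NADH oxidation at 340 nm. Phosphorylated: 1 mM ATP, 5.1 mM poly(E4Y1), 25 mM MgCl2; unphosphorylated: 3 mM ATP, 20 mM poly(E4Y1), 60 mM MgCl2, 2 mM MnCl2. Ki from activity at varying compound levels.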

PDGFRβ = molecular target: T2, PDGFRβ (Homo sapiens, UniProt P09619); assay: PAE-PDGFRβ Phosphorylation in PAE-PDGFRB Cells Assay; type: cell-based; conditions: PAE cells overexpressing human PDGFRβ; read-out: PAE PDGFR autophos IC50
T2 construct: expressed in transfected cells; host or cells: porcine aorta endothelial (PAE) cells
Procedure, shortened: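 PAE cells overexpressing human PDGFRβ, serum-starved 16 h (0.1% FBS), compound 1 h at 37° C (0.5% DMSO), then 1 μg/mL PDGF-BB with 2 mM Na3VO4 for 8 min. Receptor captured by anti-PDGFRβ, phosphotyrosine detected by HRP-PY20/TMB at 450 nm; IC50 by four-parameter fit.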

FGF-R1 = molecular target: T3, FGF-R1 (Homo sapiens, UniProt P11362, C488A/C584S/L457V); assay: Fibroblast Growth Factor (FGF-R) spectrophotometric assay; type: biochemical; conditions: for inhibition at 1 µM: 1 μM compound, read-out: FGF-P % inhibit @1 μM
T3 construct: starting from the endogenous methionine residue 456 to glutamate 766; made in house; host or cells: baculovirus vector expression system
Procedure, shortened: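 Baculovirus-expressed human FGF-R1 kinase domain (Met456–Glu766; L457V/C488A/C584S), 50 nM, with 2 mM ATP and 15 mM poly(E4Y1) in HEPES pH 7.5. ADP formation coupled via PK/LDH to NADH oxidation, read as A340 decrease. Ki from activity across varying compound concentrations.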

T3 sequence (P11362 456-766 L457V/C488A/C584S): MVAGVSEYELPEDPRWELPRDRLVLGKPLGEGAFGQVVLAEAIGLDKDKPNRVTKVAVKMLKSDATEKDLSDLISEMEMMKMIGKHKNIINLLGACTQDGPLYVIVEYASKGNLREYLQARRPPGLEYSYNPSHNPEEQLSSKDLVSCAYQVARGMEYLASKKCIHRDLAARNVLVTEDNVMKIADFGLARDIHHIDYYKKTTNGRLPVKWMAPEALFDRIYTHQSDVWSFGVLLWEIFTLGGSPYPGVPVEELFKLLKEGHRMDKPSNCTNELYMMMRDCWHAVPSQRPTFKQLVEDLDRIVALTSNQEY
T1 sequence (P35968 with tags, fused parts or gaps DEL940-989/E990V limits assumed): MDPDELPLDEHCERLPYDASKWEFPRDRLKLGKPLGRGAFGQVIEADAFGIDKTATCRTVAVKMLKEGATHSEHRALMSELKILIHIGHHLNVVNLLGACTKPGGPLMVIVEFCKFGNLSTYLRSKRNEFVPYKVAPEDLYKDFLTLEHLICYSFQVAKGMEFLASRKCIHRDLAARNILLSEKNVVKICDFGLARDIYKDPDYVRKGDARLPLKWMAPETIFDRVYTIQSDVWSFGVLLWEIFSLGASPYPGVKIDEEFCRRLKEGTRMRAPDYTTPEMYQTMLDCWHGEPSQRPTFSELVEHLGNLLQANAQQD
T2 sequence (P09619 33-1106): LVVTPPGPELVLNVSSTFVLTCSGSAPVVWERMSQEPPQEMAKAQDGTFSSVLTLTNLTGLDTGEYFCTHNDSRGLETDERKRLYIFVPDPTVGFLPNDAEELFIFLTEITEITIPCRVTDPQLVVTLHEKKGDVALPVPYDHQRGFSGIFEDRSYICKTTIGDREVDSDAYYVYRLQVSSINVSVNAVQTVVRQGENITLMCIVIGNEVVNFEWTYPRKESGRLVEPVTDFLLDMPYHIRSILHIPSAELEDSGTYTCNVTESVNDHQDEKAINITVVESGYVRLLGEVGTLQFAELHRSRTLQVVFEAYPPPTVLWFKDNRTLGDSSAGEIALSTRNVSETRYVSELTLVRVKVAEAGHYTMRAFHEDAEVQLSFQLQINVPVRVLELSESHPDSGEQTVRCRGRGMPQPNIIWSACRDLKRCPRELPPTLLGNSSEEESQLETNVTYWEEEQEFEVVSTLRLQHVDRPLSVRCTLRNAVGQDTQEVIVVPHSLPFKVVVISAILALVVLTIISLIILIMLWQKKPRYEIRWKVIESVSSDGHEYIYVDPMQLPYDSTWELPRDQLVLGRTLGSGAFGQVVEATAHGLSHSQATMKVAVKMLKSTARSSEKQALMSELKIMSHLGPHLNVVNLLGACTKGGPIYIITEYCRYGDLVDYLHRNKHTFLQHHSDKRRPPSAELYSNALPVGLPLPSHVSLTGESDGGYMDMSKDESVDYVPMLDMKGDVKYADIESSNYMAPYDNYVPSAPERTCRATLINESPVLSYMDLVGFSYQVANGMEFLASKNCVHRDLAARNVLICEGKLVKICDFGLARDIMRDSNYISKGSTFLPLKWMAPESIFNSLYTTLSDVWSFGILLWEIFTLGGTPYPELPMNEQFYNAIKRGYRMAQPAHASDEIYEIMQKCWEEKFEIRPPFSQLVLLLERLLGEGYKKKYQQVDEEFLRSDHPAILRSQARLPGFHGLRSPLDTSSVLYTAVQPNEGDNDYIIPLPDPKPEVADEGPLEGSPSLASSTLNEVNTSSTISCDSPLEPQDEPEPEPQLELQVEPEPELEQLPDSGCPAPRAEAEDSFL

inhibition at 0.05 µM [1] [%] | IC50 (PDGFRβ) [nM] | inhibition at 1 µM (FGF-R1) [%] | Ki (FGF-R1; second value in the FGF-P cell, Ki) [nM] | Structure (SMILES)
78 | 0.5 | 70 | – | C#CCNC(=O)c1ccccc1Nc1ccc2c(/C=C/c3cc(C)ccn3)n[nH]c2c1 [Example 32, 2-{3-[(E)-2-(4-Methyl-pyridin-2-yl)-vinyl]-1H-indazol-6-ylamino}-N-prop-2-ynyl-benzamide]
74 | 5 | 36 | – | C=C(C)CNC(=O)c1ccccc1Nc1ccc2c(/C=C/c3ccccn3)n[nH]c2c1 [Example 3(k), N-(2-Methyl-allyl)-2-[3-((E)-2-pyridin-2-yl-vinyl)-1H-indazol-6-ylamino]-benzamide]
89 | 3.5 | 80 | – | O=C(NC1CC1)c1ccccc1Nc1ccc2c(/C=C/c3ccccn3)n[nH]c2c1 [Example 3(d), N-Cyclopropyl-2-[3-((E)-2-pyridin-2-yl-vinyl)-1H-indazol-6-ylamino]-benzamide]
84 | 2.8 | 75 | – | Cc1ccnc(/C=C/c2n[nH]c3cc(Nc4ccccc4C(=O)NC4CC4)ccc23)c1 [Example 2(h), N-Cyclopropyl-2-{3-[(E)-2-(4-methyl-pyridin-2-yl)-vinyl]-1H-indazol-6-ylamino}-benzamide]
96 | 0.63 | 85 | – | COc1ccccc1CNC(=O)c1ccccc1Nc1ccc2c(/C=C/c3ccccn3)n[nH]c2c1 [Example 3(h), N-(2-Methoxy-benzyl)-2-[3-((E)-2-pyridin-2-yl-vinyl)-1H-indazol-6-ylamino]-benzamide]
94 | 5.5 | 39 | – | O=C(NCC#CCO)c1ccccc1Nc1ccc2c(/C=C/c3ccccn3)n[nH]c2c1 [Example 64, N-(4-Hydroxy-but-2-ynyl)-2-[3-(2-pyridin-2-yl-vinyl)-1H-indazol-6-ylamino]-benzamide]
76 | 21 | 38 | 197 | Cc1cc(C)nc(/C=C/c2n[nH]c3cc(Nc4ccccc4C(=O)NCC#CCO)ccc23)c1 [Example 10, 2-{3-[(E)-2-(4,6-Dimethyl-pyridin-2-yl)-vinyl]-1H-indazol-6-ylamino}-N-(4-hydroxy-but-2-ynyl)-benzamide]
80 | 4.7 | 43 | – | O=C(NC1CCC1)c1ccccc1Nc1ccc2c(/C=C/c3ccccn3)n[nH]c2c1 [Example 3(j), N-Cyclobutyl-2-[3-((E)-2-pyridin-2-yl-vinyl)-1H-indazol-6-ylamino]-benzamide]
